Data on three molecules can be found in publication PMC9365377 (Clinical Cancer Research, 2022).

Data set [1] relates to patients with NRAS-mutant melanoma. Briefly: Phase Ib dose escalation: DLTs in cycle 1, MTD/RP2D determination. The class given is in vivo, human. The settings on record: 28-day schedule.
A short description of another data set: Plasma pharmacokinetics. The format is in vivo, human. As to conditions: for Tmax: steady state; for Cmax: human, Cmax at steady state, geometric mean (geometric %CV).
For data set [2] the following is noted: phase I study, 3 weeks on/1 week off; cited from earlier work.
Data set [3] deals with advanced, previously untreated, unresectable, stage IIIC or IV NRAS-mutant melanoma. The settings on record: cited from earlier work.
The conditions of data set [4]: phase I study; cited from earlier work.
[5] abbreviates: binimetinib 45 mg twice daily + ribociclib 200 mg once daily, 28-day schedule, 11 subjects.
[6] abbreviates: binimetinib 45 mg orally twice daily or dacarbazine 1,000 mg/m^2 intravenously every 3 weeks, 402 patients.
The mark [7] stands for this setting: patients who received prior immunotherapy.

“Also recorded” adds a separate entry of the source. Read-outs that look alike come from different tables or passages of the source.

Consider `CN(C)C(=O)c1cc2cnc(Nc3ccc(N4CCNCC4)cn3)nc2n1C1CCCC1` [ribociclib], for which the “RP2D (in the combination)” value in data set [1] (21 days on/7 days off) is given as 200 mg once daily. For the same molecule, the Tmax result in the data set “Plasma pharmacokinetics” (setting [5]) is listed as “about 2.25 hour postdose”. In addition, in the data set “Plasma pharmacokinetics” (dose-escalation range of 200 to 600 mg once daily), the “Dose proportionality of steady-state exposures” value is “increased greater than dose proportionally; also recorded: greater than dose proportional”. Further, the highest concentration (Cmax) was 1910 ng/mL in “Plasma pharmacokinetics” (plasma, 600 mg ribociclib coadministered with binimetinib, 21-day cycle) and 220 ng/mL in the data set “Plasma pharmacokinetics” (plasma, binimetinib 45 mg twice daily + ribociclib 200 mg once daily, 28-day schedule, 11 subjects, plasma). Further, the “recommended dose for expansion, single agent” value in data set [2] is 600 mg/day.

For `CN(C)/N=N/c1[nH]cnc1C(N)=O` [dacarbazine], the “median PFS” value is 1.5 months in data set [3] (setting [6]) and 1.6 months in data set [3] (setting [7]).

Turning to `Cn1cnc2c(F)c(Nc3ccc(Br)cc3F)c(C(=O)NOCCO)cc21` [binimetinib], the “RP2D (in the combination)” value in data set [1] (continuous dosing) was found to be 45 mg twice daily. The “AUCtau at steady state, geometric mean (geometric %CV)” value in the data set “Plasma pharmacokinetics” (binimetinib 45 mg twice daily + ribociclib 200 mg once daily, 28-day schedule, 11 subjects, plasma) is reported as 2,250 (37.7%) hour*ng/mL. Moreover, the Tmax result in the data set “Plasma pharmacokinetics” (setting [5]) was “about 1.00 hour postdose”. Further, the “PFS HR, binimetinib vs dacarbazine” value in data set [3] (95% CI, 0.47–0.80, one-sided P < 0.001) is 0.62. Also, in data set [3] (95% CI, 0.75–1.33, one-sided P = 0.50), the “OS HR, binimetinib vs dacarbazine” value is 1.00. In addition, the “median PFS” value is reported as 2.8 months in data set [3] (setting [6]) and 5.5 months in data set [3] (setting [7]). Besides, the “recommended phase II dose (RP2D), single agent” value in data set [4] is reported as 45 mg twice daily.

Broadly, the Cmax is the peak of the concentration-time curve.
